Bridge positions count the residues as written; N and C are the ends. Peptide text beside a SMILES is read from it.
These molecules were tested against T1, endothelin receptor (Bos taurus, UniProt P28088) (assay: Endothelin receptor-antagonizing effect: 125I-endothelin-1 binding to bovine cerebellar tissue membrane fraction). Details: not given.
T1 construct: from tissue; host or cells: bovine cerebellar membrane fraction
T1 sequence (P28088 27-441): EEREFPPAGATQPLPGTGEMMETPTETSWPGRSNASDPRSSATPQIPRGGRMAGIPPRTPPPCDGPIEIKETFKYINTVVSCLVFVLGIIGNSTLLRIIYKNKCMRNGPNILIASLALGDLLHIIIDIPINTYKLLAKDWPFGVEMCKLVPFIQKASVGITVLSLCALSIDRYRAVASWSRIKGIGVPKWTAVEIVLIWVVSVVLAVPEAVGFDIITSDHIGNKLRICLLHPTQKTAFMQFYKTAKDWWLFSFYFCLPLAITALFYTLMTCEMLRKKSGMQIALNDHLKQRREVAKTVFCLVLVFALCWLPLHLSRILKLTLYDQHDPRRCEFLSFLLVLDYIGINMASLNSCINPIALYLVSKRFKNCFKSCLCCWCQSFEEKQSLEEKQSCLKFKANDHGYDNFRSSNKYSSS

With `C[C@@H]1NC(=O)[C@H]([C@@H](C)O)NC(=O)CNC(=O)[C@H](Cc2c[nH]cn2)NC(=O)[C@H](Cc2c[nH]c3ccccc23)NC(=O)[C@H](CC(N)=O)NC(=O)[C@@H](N)CSSC[C@@H](C(=O)N[C@@H](Cc2c[nH]c3ccccc23)C(=O)N[C@@H](Cc2ccccc2)C(=O)N[C@@H](Cc2ccccc2)C(=O)N[C@@H](CC(N)=O)C(=O)N[C@@H](Cc2ccc(O)cc2)C(=O)N[C@@H](Cc2ccc(O)cc2)C(=O)N[C@@H](Cc2c[nH]c3ccccc23)C(=O)O)NC(=O)[C@@H]2CCCN2C1=O` [Compound I-7] (H-CNWHGTAPCWFFNYYW-OH; disulfide 1-9) as the molecule, how does the IC50 read?
The IC50 was greater than 5000 nM.

How did the IC50 turn out when `CC(=O)N[C@H]1CSSC[C@@H](C(=O)N[C@@H](Cc2c[nH]c3ccccc23)C(=O)N[C@@H](Cc2ccccc2)C(=O)N[C@@H](Cc2ccccc2)C(=O)N[C@@H](CC(N)=O)C(=O)N[C@@H](Cc2ccc(O)cc2)C(=O)N[C@@H](Cc2ccc(O)cc2)C(=O)N[C@@H](Cc2c[nH]c3ccccc23)C(=O)O)NC(=O)[C@@H]2CCCN2C(=O)[C@H](C)NC(=O)[C@H]([C@@H](C)O)NC(=O)CNC(=O)[C@H](Cc2c[nH]cn2)NC(=O)[C@H](Cc2c[nH]c3ccccc23)NC(=O)[C@H](CC(N)=O)NC1=O` [Compound I-8] (Ac-CNWHGTAPCWFFNYYW-OH; disulfide 1-9) was run?
The IC50 was greater than 5000 nM.

`C[C@@H]1NC(=O)[C@H]([C@@H](C)O)NC(=O)CNC(=O)[C@H](Cc2c[nH]cn2)NC(=O)[C@H](Cc2c[nH]c3ccccc23)NC(=O)[C@H](CC(N)=O)NC(=O)CNC(=O)C[C@@H](C(=O)O)NC(=O)[C@@H]2CCCN2C1=O` [Compound I-14] (GNWHGTAPD-OH; lactam N-9) was tested. Which IC50 did it give?
Its IC50 is greater than 1000 nM.

With `C[C@@H]1NC(=O)[C@H]([C@@H](C)O)NC(=O)CNC(=O)[C@H](Cc2c[nH]cn2)NC(=O)[C@H](Cc2c[nH]c3ccccc23)NC(=O)[C@H](CC(N)=O)NC(=O)CNC(=O)C[C@@H](C(=O)N[C@@H](Cc2c[nH]c3ccccc23)C(=O)O)NC(=O)[C@@H]2CCCN2C1=O` [Compound I-15] (GNWHGTAPDW-OH; lactam N-9) as the molecule, how does the IC50 read?
Its IC50 is greater than 900 nM.

Which IC50 does the source give for `C[C@@H]1NC(=O)[C@H]([C@@H](C)O)NC(=O)CNC(=O)[C@H](Cc2c[nH]cn2)NC(=O)[C@H](Cc2c[nH]c3ccccc23)NC(=O)[C@H](CC(N)=O)NC(=O)CNC(=O)C[C@@H](C(=O)N[C@@H](Cc2c[nH]c3ccccc23)C(=O)N[C@@H](Cc2ccccc2)C(=O)N[C@@H](Cc2ccccc2)C(=O)N[C@@H](CC(N)=O)C(=O)N[C@@H](Cc2ccc(O)cc2)C(=O)N[C@@H](Cc2ccc(O)cc2)C(=O)N[C@@H](Cc2c[nH]c3ccccc23)C(=O)N[C@@H](CC(N)=O)C(=O)N[C@@H](Cc2ccc(O)cc2)C(=O)N[C@@H](Cc2ccc(O)cc2)C(=O)N[C@@H](Cc2c[nH]c3ccccc23)C(=O)O)NC(=O)[C@@H]2CCCN2C1=O` [Compound I-19] (GNWHGTAPDWFFNYYWNYYW-OH; lactam N-9) here?
The IC50 was 370 nM.

`CC[C@H](C)[C@H](NC(=O)[C@H](Cc1c[nH]c2ccccc12)NC(=O)[C@@H]1CC(=O)NCC(=O)N[C@@H](CC(N)=O)C(=O)N[C@@H](Cc2c[nH]c3ccccc23)C(=O)N[C@@H](Cc2c[nH]cn2)C(=O)NCC(=O)N[C@@H]([C@@H](C)O)C(=O)N[C@@H](C)C(=O)N2CCC[C@H]2C(=O)N1)C(=O)N[C@H](C(=O)N[C@@H](Cc1c[nH]c2ccccc12)C(=O)O)[C@@H](C)CC` [Compound I-27] (GNWHGTAPDWIIW-OH; lactam N-9) was tested. Which IC50 did it give?
The IC50 was greater than 6000 nM.

`C[C@@H]1NC(=O)[C@H]([C@@H](C)O)NC(=O)CNC(=O)[C@H](Cc2c[nH]cn2)NC(=O)[C@H](Cc2c[nH]c3ccccc23)NC(=O)[C@H](CC(N)=O)NC(=O)CNC(=O)C[C@@H](C(=O)N[C@@H](Cc2c[nH]c3ccccc23)C(=O)N[C@@H](CC(N)=O)C(=O)N[C@@H](Cc2ccc(O)cc2)C(=O)N[C@@H](Cc2ccc(O)cc2)C(=O)N[C@@H](Cc2c[nH]c3ccccc23)C(=O)O)NC(=O)[C@@H]2CCCN2C1=O` [Compound I-32] (GNWHGTAPDWNYYW-OH; lactam N-9) was tested. Which IC50 did it give?
Its IC50 is greater than 570 nM.

`C[C@@H]1NC(=O)[C@H](C)NC(=O)[C@H]([C@@H](C)O)NC(=O)CNC(=O)[C@H](Cc2c[nH]cn2)NC(=O)[C@H](Cc2c[nH]c3ccccc23)NC(=O)[C@H](CC(N)=O)NC(=O)CNC(=O)C[C@@H](C(=O)N[C@@H](Cc2c[nH]c3ccccc23)C(=O)N[C@@H](Cc2ccccc2)C(=O)N[C@@H](Cc2ccccc2)C(=O)N[C@@H](CC(N)=O)C(=O)N[C@@H](Cc2ccc(O)cc2)C(=O)N[C@@H](Cc2ccc(O)cc2)C(=O)N[C@@H](Cc2c[nH]c3ccccc23)C(=O)O)NC1=O` [Compound I-36] (GNWHGTAADWFFNYYW-OH; lactam N-9) was tested. Which IC50 did it give?
The IC50 was greater than 570 nM.

For `CC[C@H](C)[C@H](NC(=O)[C@@H](NC(=O)[C@H](CC(=O)O)NC(=O)[C@H](CCC(N)=O)NC(=O)[C@H](Cc1c[nH]cn1)NC(=O)[C@H](C)NC(=O)[C@H](Cc1ccccc1)NC(=O)[C@H](Cc1ccc(O)cc1)NC(=O)[C@H](CC(C)C)NC(=O)[C@H](Cc1c[nH]c2ccccc12)NC(=O)[C@H](CC(=O)O)NC(=O)[C@@H]1CCCN1C(=O)[C@H](C)NC(=O)[C@@H](NC(=O)CNC(=O)[C@H](Cc1c[nH]cn1)NC(=O)[C@H](Cc1c[nH]c2ccccc12)NC(=O)[C@H](CC(N)=O)NC(=O)CN)[C@@H](C)O)C(C)C)C(=O)N[C@@H](Cc1c[nH]c2ccccc12)C(=O)O` [Compound I-38], which IC50 is on record?
Its IC50 is 0.33 nM.

Same assay, conditions: bovine cerebellar tissue membrane fraction

Which IC50 does the source give for `CC[C@H](C)[C@H](NC(=O)[C@H](CC(=O)O)NC(=O)[C@H](CC(C)C)NC(=O)[C@H](Cc1c[nH]cn1)NC(=O)[C@H](C)NC(=O)[C@H](Cc1ccccc1)NC(=O)[C@H](Cc1ccc(O)cc1)NC(=O)[C@@H](NC(=O)[C@H](Cc1c[nH]c2ccccc12)NC(=O)[C@H](CC(=O)O)NC(=O)[C@@H]1CCCN1C(=O)[C@H](C)NC(=O)[C@@H](NC(=O)CNC(=O)[C@H](Cc1c[nH]cn1)NC(=O)[C@H](Cc1c[nH]c2ccccc12)NC(=O)[C@H](CC(N)=O)NC(=O)CN)[C@@H](C)O)C(C)C)C(=O)N[C@H](C(=O)N[C@@H](Cc1c[nH]c2ccccc12)C(=O)O)[C@@H](C)CC` [Compound I-26] here?
Its IC50 is less than 0.13 nM.

Which IC50 does the source give for `CC(C)[C@H](NC(=O)[C@H](Cc1c[nH]c2ccccc12)NC(=O)[C@@H]1CC(=O)NCC(=O)N[C@@H](CC(N)=O)C(=O)N[C@@H](Cc2c[nH]c3ccccc23)C(=O)N[C@@H](Cc2c[nH]cn2)C(=O)NCC(=O)N[C@@H]([C@@H](C)O)C(=O)N[C@@H](C)C(=O)N2CCC[C@H]2C(=O)N1)C(=O)N[C@@H](Cc1ccc(O)cc1)C(=O)N[C@@H](Cc1ccccc1)C(=O)N[C@@H](C)C(=O)N[C@@H](Cc1ccccc1)C(=O)N[C@@H](Cc1ccccc1)C(=O)N[C@@H](CC(N)=O)C(=O)N[C@@H](Cc1ccc(O)cc1)C(=O)N[C@@H](Cc1ccc(O)cc1)C(=O)N[C@@H](Cc1c[nH]c2ccccc12)C(=O)O` [Compound I-33] (GNWHGTAPDWVYFAFFNYYW-OH; lactam N-9) here?
Its IC50 is greater than 40 nM.

For `CC[C@H](C)[C@H](NC(=O)[C@H](CC(=O)O)NC(=O)[C@H](CC(C)C)NC(=O)[C@H](Cc1c[nH]cn1)NC(=O)[C@H](C)NC(=O)[C@H](Cc1c[nH]c2ccccc12)NC(=O)[C@@H]1CC(=O)NCC(=O)N[C@@H](CC(N)=O)C(=O)N[C@@H](Cc2c[nH]c3ccccc23)C(=O)N[C@@H](Cc2c[nH]cn2)C(=O)NCC(=O)N[C@@H]([C@@H](C)O)C(=O)N[C@@H](C)C(=O)N2CCC[C@H]2C(=O)N1)C(=O)N[C@H](C(=O)N[C@@H](Cc1c[nH]c2ccccc12)C(=O)O)[C@@H](C)CC` [Compound I-35] (GNWHGTAPDWAHLDIIW-OH; lactam N-9 (inferred); C-terminus assumed), which IC50 is on record?
The IC50 was greater than 51 nM.

Which IC50 does the source give for `CC[C@H](C)[C@H](NC(=O)[C@H](CC(=O)O)NC(=O)[C@H](CC(C)C)NC(=O)[C@H](Cc1c[nH]cn1)NC(=O)[C@H](C)NC(=O)[C@H](Cc1ccc(O)cc1)NC(=O)[C@H](Cc1ccc(O)cc1)NC(=O)[C@@H](NC(=O)[C@H](Cc1c[nH]c2ccccc12)NC(=O)[C@H](CC(=O)O)NC(=O)[C@@H]1CCCN1C(=O)[C@H](C)NC(=O)[C@@H](NC(=O)CNC(=O)[C@H](Cc1c[nH]cn1)NC(=O)[C@H](Cc1c[nH]c2ccccc12)NC(=O)[C@H](CC(N)=O)NC(=O)CN)[C@@H](C)O)C(C)C)C(=O)N[C@H](C(=O)N[C@@H](Cc1c[nH]c2ccccc12)C(=O)O)[C@@H](C)CC` [Compound I-37] here?
Its IC50 is 0.83 nM.

Which IC50 does the source give for `CC[C@H](C)[C@H](NC(=O)[C@H](CC(N)=O)NC(=O)[C@H](Cc1ccc(O)cc1)NC(=O)[C@H](Cc1ccc(O)cc1)NC(=O)[C@H](CC(N)=O)NC(=O)[C@H](Cc1ccccc1)NC(=O)[C@H](Cc1ccccc1)NC(=O)[C@H](Cc1c[nH]c2ccccc12)NC(=O)[C@@H]1CC(=O)NCC(=O)N[C@@H](CC(N)=O)C(=O)N[C@@H](Cc2c[nH]c3ccccc23)C(=O)N[C@@H](Cc2c[nH]cn2)C(=O)NCC(=O)N[C@@H]([C@@H](C)O)C(=O)N[C@@H](C)C(=O)N2CCC[C@H]2C(=O)N1)C(=O)N[C@H](C(=O)N[C@@H](Cc1c[nH]c2ccccc12)C(=O)O)[C@@H](C)CC` [Compound I-39] (GNWHGTAPDWFFNYYNIIW-OH; lactam N-9) here?
Its IC50 is greater than 72 nM.

`CC[C@H](C)[C@H](NC(=O)[C@H](CC(=O)O)NC(=O)[C@H](CC(C)C)NC(=O)[C@H](Cc1c[nH]cn1)NC(=O)[C@H](C)NC(=O)[C@H](Cc1ccc(O)cc1)NC(=O)[C@H](Cc1ccc(O)cc1)NC(=O)[C@H](CC(N)=O)NC(=O)[C@H](Cc1ccccc1)NC(=O)[C@H](Cc1ccccc1)NC(=O)[C@H](Cc1c[nH]c2ccccc12)NC(=O)[C@@H]1CC(=O)NCC(=O)N[C@@H](CC(N)=O)C(=O)N[C@@H](Cc2c[nH]c3ccccc23)C(=O)N[C@@H](Cc2c[nH]cn2)C(=O)NCC(=O)N[C@@H]([C@@H](C)O)C(=O)N[C@@H](C)C(=O)N2CCC[C@H]2C(=O)N1)C(=O)N[C@H](C(=O)N[C@@H](Cc1c[nH]c2ccccc12)C(=O)O)[C@@H](C)CC` [Compound I-40] (GNWHGTAPDWFFNYYAHLDIIW-OH; lactam N-9 (inferred); C-terminus assumed) was tested. Which IC50 did it give?
Its IC50 is greater than 45 nM.

Source: patent publication US6642355B2, “Endothelin-antagonizing peptide” (priority 1991, dated 2003)
